According to patent US6656969B2, “Methods and compositions for inhibiting the proliferation of prostate cancer cells” (Mayo Foundation for Medical Education and Research, priority 2001, dated 2003):

Tests used:
PSA = PSA quantification in spent media (Tandem-E PSA kit); type: cell-based, human; settings: LNCaP cells, 1 nM Mib, six days, normalized to cell number
Protocol: (§1) A human prostate cancer cell line, LNCaP (American Type Culture Collection (ATCC), Manassas, Va.), was cultured in RPMI 1640 medium (Mediatech, Herndon, Va.) supplemented with 5% fetal bovine serum (FBS) at 37° C. and 5% CO2 until reaching approximately 50-70% confluence. The media were changed to serum-free RPMI 1640 24 hrs prior to experiments being performed to deplete undesired steroids. […] Equivalent amounts of solvent were added to control cells.
(§2) For cell proliferation and PSA expression assays, LNCaP cells were seeded at 2×10^4 cells per well in 24 well plates. […] Six days after treatment, 400 μl of spent media were collected for total PSA protein measurements by the Tandem-E PSA kit (Hybritech Inc. San Diego, Calif.). An MTS assay was performed (Promega, Madison, Wis.) for measuring cell viability. Four wells per treatment were used for the above assays and it was repeated twice. PSA levels in spent media were normalized to cell number.

hsp90 = assay: Level of hsp90; type: cell-based
c-fos = assay: Level of c-fos in LNCaP cells; type: cell-based, human
LNCaP cells = assay: Cell proliferation (MTS) assay, androgen-stimulated growth; type: cell-based, human; settings: six days; for androgen-stimulated cell growth: with 1 nM mibolerone (Mib)
Protocol: as §1, §2

hsp70 = assay: Level of hsp70; type: cell-based
ARA70 = assay: Level of androgen receptor specific co-activator ARA70; type: cell-based
[1] = system: androgen-regulated genes (NKX 3.1, ODC, fkbp 51, Drg-1, PSA); assay: Northern blot of androgen-regulated genes in LNCaP cells; type: cell-based, human
Protocol: A denaturing RNA gel was run and transferred onto a nylon membrane (BioRad) according to the GeneScreen protocol (New England Nuclear). Fifteen μg of total RNA was loaded in each lane. cDNAs for PSA, ornithine decarboxylase (ODC), NKX 3.1, fkbp 51, Drg-1 and glyceraldehyde-3-phosphate dehydogenase (GAPDH) were labeled with [P^32]dCTP by random priming and used as probes. The hybridizations were performed according to the recommended protocol using ExpressHyb Hybridization Solution (Clontech, Palo Alto, Calif.). The films were autoradiographed at −70° C. overnight.

androgen receptor = molecular target: T1, androgen receptor (Homo sapiens, UniProt P10275, T878A); type: cell-based; settings: LNCaP cells, 3.2 nM Mib
T1 construct: LNCaP cells express the androgen receptor; endogenous in cells; host or cells: LNCaP
T1 sequence (P10275 whole entry T878A): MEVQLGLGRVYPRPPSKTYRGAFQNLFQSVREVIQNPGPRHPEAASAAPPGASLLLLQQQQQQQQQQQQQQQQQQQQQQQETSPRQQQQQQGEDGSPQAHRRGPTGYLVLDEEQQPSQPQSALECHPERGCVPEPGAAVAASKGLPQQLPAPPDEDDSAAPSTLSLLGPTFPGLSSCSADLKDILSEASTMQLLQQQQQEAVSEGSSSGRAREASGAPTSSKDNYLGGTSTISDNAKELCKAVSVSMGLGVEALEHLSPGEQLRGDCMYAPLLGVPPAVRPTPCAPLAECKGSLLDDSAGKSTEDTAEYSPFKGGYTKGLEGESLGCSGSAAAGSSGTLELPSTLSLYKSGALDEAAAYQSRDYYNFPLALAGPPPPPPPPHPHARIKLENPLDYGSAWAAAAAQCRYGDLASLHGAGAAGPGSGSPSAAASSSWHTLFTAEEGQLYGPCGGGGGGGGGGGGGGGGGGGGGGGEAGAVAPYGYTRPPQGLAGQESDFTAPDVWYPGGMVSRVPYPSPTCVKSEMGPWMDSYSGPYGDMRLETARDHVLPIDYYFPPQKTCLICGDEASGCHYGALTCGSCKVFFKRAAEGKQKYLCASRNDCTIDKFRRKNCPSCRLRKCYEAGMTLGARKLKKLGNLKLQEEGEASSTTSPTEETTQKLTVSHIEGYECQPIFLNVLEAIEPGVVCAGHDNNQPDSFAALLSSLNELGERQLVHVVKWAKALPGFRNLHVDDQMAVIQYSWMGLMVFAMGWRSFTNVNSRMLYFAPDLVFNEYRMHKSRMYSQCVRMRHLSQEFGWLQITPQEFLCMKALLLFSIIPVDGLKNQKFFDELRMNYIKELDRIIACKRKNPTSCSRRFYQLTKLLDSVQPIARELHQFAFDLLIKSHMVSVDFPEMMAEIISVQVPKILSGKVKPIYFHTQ
Protocol: LNCaP or PC-3 cells were plated in 60 mm dishes. Cells were transiently transfected as described (Zhang et al., 1999, Endocrin, 140:1665-71) with either 3 copies of an hK2 ARE in a pGL3 promoter plasmid, CMV-β-gal, a human androgen receptor expression vector or a c-jun expression vector as indicated. The androgen receptor and c-jun constructs were driven by an SV40 promoter. LNCaP cells were transfected using liposome containing dimethyldioctadecyl-ammonium bromide (DDAB) (Sigma) and L-α-lecithin (Sigma) (4:10 w/w) and PC-3 cells were transfected using lipofectamine (Gibco BRL, Grand Island, N.Y.). […] Whole cell extracts were prepared according to Ren et al., (2000, Oncogene, 19:1924-32) and a luciferase assay was performed according to manufacturer's instructions (Promega). The CMV-β-galactosidase (β-gal) expression vector and the parental vector (pGL3) were included as controls in the above transfections. β-gal activity or total protein using the Bradford assay (BioRad, Hercules, Calif.) were assayed for normalization purposes. Luciferase activities were normalized to β-gal activities and presented as relative light units/mU β-gal. Each transfection was done three times and results were analyzed by the Student's t-test. A p<0.05 was accepted as the level of significance.

## CCC=CCC=CCC=CCC=CCC=CC/C=C\CCC(=O)O [DHA, cis-4,7, 10, 13, 16, 19-docosahexaenoic acid]
PSA
  androgen-stimulated PSA secretion: decrease in androgen-stimulated PSA secretion
hsp90
  levels of hsp90: no inhibitory effects were observed
c-fos
  levels of c-fos: unaltered
LNCaP cells
  androgen-stimulated cell growth: dose-dependent statistically significant decrease in cell growth
LNCaP cells; without Mib
  cell growth without androgen stimulation: little response
hsp70
  levels of hsp70: no inhibitory effects were observed
ARA70
  levels of ARA70: no inhibitory effects were observed
[1]; 1 nM Mib, DHA at 150 μM or higher
  androgen-induced mRNA of NKX 3.1, ODC, fkbp 51, Drg-1 and PSA: greatly inhibited the androgen-induced response

## C[C@@H]1CC2=CC(=O)CC[C@@H]2[C@H]2CC[C@@]3(C)[C@@H](CC[C@]3(C)O)[C@@H]21 [Mib, mibolerone]
Androgen receptor
  ARE luciferase activity, androgen alone: strong androgenic induction of luciferase activity

## CCC=CCC=CCC=CCC=CC/C=C\CCCC(=O)O [EPA, cis-5,8, 11, 14, 17-eicosapentaenoic acid]
PSA
  androgen-stimulated PSA secretion: required higher EPA concentrations for significant inhibition
hsp90
  levels of hsp90: no inhibitory effects were observed
LNCaP cells
  androgen-stimulated cell growth: decreased androgen-stimulated cell growth
hsp70
  levels of hsp70: no inhibitory effects were observed
[1]; summary statement
  mRNA and protein levels of PSA and hK2: reduce both the mRNA and protein levels
